Consider six compounds from ChEMBL document CHEMBL4823326 (ACS Med Chem Lett, 2021).

The subject of one test is HEK293. The experiment in a line: Induction of autophagy in human HEK293 cells expressing GFP-LC3B-RFP assessed as decrease in fluorescence at 10 uM after 24 hrs by multilabel counter method. The class given is functional. The arrangement: scale not given: the % may be the effect or the level left.
Another test deals with Prolyl endopeptidase (Sus scrofa, UniProt P23687). The experiment in a line: Inhibition of recombinant porcine PREP expressed in Escherichia coli using Suc-Gly-Pro-AMC as substrate preincubated for 30 mins followed by substrate addition and measured after 60 mins by multilabel counter analysis.
Prolyl endopeptidase, sequence (P23687 whole entry): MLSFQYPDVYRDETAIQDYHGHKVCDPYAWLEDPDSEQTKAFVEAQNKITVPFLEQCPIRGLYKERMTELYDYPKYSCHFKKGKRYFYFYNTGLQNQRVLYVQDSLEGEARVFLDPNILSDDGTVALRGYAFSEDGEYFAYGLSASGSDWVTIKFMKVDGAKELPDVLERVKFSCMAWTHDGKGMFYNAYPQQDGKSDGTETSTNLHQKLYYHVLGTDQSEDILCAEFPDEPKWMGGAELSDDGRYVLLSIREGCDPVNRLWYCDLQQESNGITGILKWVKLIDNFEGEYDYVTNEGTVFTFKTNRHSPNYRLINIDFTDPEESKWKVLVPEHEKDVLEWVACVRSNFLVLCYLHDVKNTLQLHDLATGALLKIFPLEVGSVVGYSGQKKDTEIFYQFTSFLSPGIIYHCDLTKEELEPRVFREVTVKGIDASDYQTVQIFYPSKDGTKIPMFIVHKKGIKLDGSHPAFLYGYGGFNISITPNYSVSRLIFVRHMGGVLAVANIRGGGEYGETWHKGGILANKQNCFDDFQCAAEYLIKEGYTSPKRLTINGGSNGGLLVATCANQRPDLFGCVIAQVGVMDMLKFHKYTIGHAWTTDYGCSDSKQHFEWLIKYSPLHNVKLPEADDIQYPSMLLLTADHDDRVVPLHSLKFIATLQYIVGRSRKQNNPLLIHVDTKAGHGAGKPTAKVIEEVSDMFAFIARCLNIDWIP

As for `N#C[C@@H]1CCCN1C(=O)[C@@H]1CCCN1C(=O)CCCc1ccccc1`, the Activity with HEK293 amounted to 89%.
For the compound `Cn1nnc([C@@H]2CCCN2C(=O)[C@@H]2CCCN2C(=O)CCCc2ccccc2)n1`, the IC50 (commonly the midpoint of a concentration-inhibition curve) on Prolyl endopeptidase is 12 µM.
Turning to `O=C(CCCc1ccccc1)N1CCC[C@H]1C(=O)N1CCC[C@H]1c1nnc[nH]1`, on Prolyl endopeptidase, the IC50 stood at 29 µM.
The same measure, in the same setting: the figure for `C[C@H](NC(=O)CCCc1ccccc1)C(=O)N1CCC[C@H]1c1nnc[nH]1` is 55 µM; for `O=C(CCCc1ccccc1)N1CCC[C@H]1C(=O)N1CCC[C@H]1c1ccn[nH]1` it is 70 µM; for `CN(CC(=O)N1CCC[C@H]1c1nnn[nH]1)C(=O)CCc1ccccc1` it is 62 µM.
